Source: US7001896B2, “Compositions for treating diabetes” (Otsuka Pharmaceutical Factory, Inc., priority 2000, dated 2006)

Test system: New Zealand white rabbits given high-fat, high-sugar feed
Experiment: Pharmacological Test Example 1: serum glucose level in rabbits fed high-fat, high-sugar feed
Format: in vivo
Settings: for serum glucose level (mean±S.D.): Group 2 (n = 6), high-fat, high-sugar feed containing 1% Compound A from week 4, fasted overnight, feed 35 g/kg/day
From the text: In this test, New Zealand white rabbits each weighing about 2 kg were divided into three groups, i.e., Group 1 consisting of 5 rabbits, Group 2 consisting of 6 rabbits, and Group 3 consisting of 6 rabbits.
The Group 1 rabbits were fed on an ordinary feed (Standard laboratory chow for rabbits, product of Shanghai Shengwang Experimental Animal Ranch (P.R. China)) (Normal Group).
The Group 2 rabbits were given for 4 weeks a high-fat, high-sugar feed prepared by adding 10% lard and 37% sucrose to the above-described standard laboratory chow. After confirming increases in blood glucose level, these rabbits were fed a high-fat, high-sugar feed as described above but containing 1% of the active ingredient (Compound A) of the pharmaceutical composition of the invention for treating diabetes (Experimental Group).
The Group 3 rabbits were fed the high-fat, high-sugar feed prepared by adding 10% lard and 37% sucrose to the standard laboratory chow described above (Control Group).
The rabbits of each group were allowed to eat the respective feeds ad libitum. In all groups, the amount of feed given was 35 g/kg/day per rabbit. The test period (period of feeding) was 24 weeks.
At the beginning of the test (0 week) and 4 weeks, 8 weeks, 12 weeks, 16 weeks, 20 weeks and 24 weeks later, the rabbits of each group fasted overnight, and blood samples were then collected from the auricular artery and assayed to measure the serum glucose level (mg/dl) using a commercially available glucose determination kit for enzymatic assaying (Glucose determination kit (Glucose oxidase-peroxidase method), product of Shanghai Rongsheng Biotech Inc. (P.R China).

In the case of CCOP(=O)(Cc1ccc(C(=O)Nc2ccc(Br)cc2C#N)cc1)OCC [Compound A, 4-diethoxyphosphinoylmethyl-N-(4-bromo-2-cyanophenyl)benzamide], the “serum glucose level (mean±S.D.)” value (8 weeks later) was 124.7 ± 29.2 mg/dL, the “serum glucose level (mean±S.D.)” value (12 weeks later) was 84.7 ± 19.5 mg/dL and the “serum glucose level (mean±S.D.)” value (16 weeks later) was 85.3 ± 12.8 mg/dL. For the same compound, the “serum glucose level (mean±S.D.)” value (20 weeks later) was 90.0 ± 15.7 mg/dL, the “serum glucose level (mean±S.D.)” value (24 weeks later) was 73.6 ± 6.1 mg/dL and the “change in blood glucose level (in words)” value (Group 2 given high-fat, high-sugar feed containing Compound A from 4 weeks after the beginning of the test, 24-week test, versus Control Group 3 with continuous increase) was “significant decrease in blood glucose level over time”.
